Read-outs that look alike come from different tables or passages of the source.
Key:
[1] = tested on: HCT116 colon cancer cells; experiment: HCT116 cell viability and proliferation assay (MTS); assay type: cell-based; conditions: HCT116 cells, 72 hours incubation, MTS, mean of 3 independent experiments, read-out: HCT116 D3 GI50
[2] = tested on: PC-3 prostate cancer cells; experiment: PC3 cell viability and proliferation assay (MTS); assay type: cell-based; conditions: PC3 cells, 72 hours incubation, MTS, mean of 3 independent experiments, read-out: PC3 D3 GI50
USP7 = biological target: T1, USP7 (Homo sapiens, UniProt Q93009); experiment: USP7 activity assay; assay type: biochemical; conditions: 400 nM Ub-AMC, 152 pM enzyme, 30 min pre-incubation at 25° C., 60 min at 37° C.; sigmoidal fit; read-out: USP 7 (inhibition of cysteine protease activity)
T1 construct: His tag (from pFastBac-HT vector) (N); made in house; host or cells: insect cells (Sf9 or High Five), baculovirus
T1 sequence (Q93009 whole entry): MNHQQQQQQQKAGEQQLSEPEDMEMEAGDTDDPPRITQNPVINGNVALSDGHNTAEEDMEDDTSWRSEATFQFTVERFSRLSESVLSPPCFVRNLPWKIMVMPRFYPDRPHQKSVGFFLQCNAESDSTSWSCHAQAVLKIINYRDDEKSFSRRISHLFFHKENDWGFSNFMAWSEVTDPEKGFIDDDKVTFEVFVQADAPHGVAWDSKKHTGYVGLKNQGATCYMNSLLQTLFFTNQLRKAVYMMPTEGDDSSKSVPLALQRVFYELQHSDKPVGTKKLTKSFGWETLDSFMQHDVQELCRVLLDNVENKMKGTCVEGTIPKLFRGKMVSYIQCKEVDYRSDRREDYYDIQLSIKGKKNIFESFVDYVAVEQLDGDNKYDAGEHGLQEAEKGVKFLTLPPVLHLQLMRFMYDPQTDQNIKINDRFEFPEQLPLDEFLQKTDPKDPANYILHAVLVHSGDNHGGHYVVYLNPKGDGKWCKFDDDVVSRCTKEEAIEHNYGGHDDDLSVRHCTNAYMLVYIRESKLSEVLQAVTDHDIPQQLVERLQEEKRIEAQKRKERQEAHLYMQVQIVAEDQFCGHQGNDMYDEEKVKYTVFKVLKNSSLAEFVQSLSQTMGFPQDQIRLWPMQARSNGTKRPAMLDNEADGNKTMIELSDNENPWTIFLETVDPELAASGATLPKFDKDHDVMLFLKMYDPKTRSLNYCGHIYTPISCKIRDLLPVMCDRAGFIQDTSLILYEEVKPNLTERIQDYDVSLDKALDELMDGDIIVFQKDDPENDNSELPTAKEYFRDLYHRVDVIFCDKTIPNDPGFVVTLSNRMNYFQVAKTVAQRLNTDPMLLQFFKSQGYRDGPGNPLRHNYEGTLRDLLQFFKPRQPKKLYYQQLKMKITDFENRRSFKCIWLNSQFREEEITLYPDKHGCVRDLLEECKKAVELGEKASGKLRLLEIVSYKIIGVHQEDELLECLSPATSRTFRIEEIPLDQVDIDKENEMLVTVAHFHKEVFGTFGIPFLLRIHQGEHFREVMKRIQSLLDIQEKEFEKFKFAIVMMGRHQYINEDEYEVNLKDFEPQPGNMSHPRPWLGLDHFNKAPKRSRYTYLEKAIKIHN

USP8 = biological target: T2, USP8 (Homo sapiens, UniProt P40818); experiment: USP8 activity assay; assay type: biochemical; conditions: 400 nM Ub-AMC, pH8.8, 30 min pre-incubation at 25° C., 60 min at 37° C.; sigmoidal fit; AF: Autofluorescent; read-out: USP 8 (inhibition of cysteine protease activity)
T2 sequence (P40818 1-1118): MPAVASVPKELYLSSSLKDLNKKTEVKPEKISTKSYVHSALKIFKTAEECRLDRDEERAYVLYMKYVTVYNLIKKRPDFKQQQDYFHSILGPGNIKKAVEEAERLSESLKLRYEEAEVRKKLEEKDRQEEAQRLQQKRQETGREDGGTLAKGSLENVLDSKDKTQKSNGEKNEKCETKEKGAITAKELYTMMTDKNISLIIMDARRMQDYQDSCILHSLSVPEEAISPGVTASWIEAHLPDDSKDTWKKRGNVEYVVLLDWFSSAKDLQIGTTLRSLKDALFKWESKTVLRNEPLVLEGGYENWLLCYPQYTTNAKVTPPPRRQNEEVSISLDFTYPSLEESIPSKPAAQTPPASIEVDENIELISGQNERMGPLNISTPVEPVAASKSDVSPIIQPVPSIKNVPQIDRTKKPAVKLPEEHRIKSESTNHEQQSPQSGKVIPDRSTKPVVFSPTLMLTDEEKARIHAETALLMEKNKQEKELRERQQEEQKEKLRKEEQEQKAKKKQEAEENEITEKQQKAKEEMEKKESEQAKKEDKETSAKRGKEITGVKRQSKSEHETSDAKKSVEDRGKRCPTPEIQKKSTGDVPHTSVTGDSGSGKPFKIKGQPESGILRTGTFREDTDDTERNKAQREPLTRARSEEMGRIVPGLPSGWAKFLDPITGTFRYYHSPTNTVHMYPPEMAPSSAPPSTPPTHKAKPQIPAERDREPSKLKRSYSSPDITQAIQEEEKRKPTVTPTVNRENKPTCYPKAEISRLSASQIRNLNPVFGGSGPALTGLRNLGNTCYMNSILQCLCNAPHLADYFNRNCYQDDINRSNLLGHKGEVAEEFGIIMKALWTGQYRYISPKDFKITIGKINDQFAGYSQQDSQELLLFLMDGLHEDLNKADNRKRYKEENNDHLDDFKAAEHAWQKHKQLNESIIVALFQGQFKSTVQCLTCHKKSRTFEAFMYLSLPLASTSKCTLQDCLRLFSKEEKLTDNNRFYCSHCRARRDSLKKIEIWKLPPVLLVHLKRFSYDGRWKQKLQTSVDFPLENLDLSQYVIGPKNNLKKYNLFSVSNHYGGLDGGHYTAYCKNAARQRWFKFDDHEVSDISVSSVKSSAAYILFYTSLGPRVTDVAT

Uch-L3 = biological target: T3, Uch-L3 (Homo sapiens, UniProt P15374); experiment: UCH-L3 activity assay; assay type: biochemical; conditions: 400 nM Ub-AMC, 13 pM enzyme, 30 min pre-incubation at 25° C., 60 min at 37° C.; sigmoidal fit; AF: Autofluorescent; read-out: Uch-L3 (inhibition of cysteine protease activity)
T3 sequence (P15374 1-230): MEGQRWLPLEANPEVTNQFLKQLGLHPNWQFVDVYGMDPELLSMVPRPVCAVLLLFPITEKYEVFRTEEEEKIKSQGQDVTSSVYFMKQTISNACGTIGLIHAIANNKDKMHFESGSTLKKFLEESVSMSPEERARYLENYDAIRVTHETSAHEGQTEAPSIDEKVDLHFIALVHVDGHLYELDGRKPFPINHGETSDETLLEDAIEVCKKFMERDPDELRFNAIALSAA
Experimental: Bovine Serum Albumin 0.05 mg·ml^−1 pH7.6). Compounds stocks (100 mM) were stored at −20° C. in DMSO. […] Reactions were performed as duplicates in Black LJL 96 well plates (HE microplates; Molecular Devices; 20 μl final reaction volume). The substrate concentration for Uch-L3 was 400 nM Ub-AMC (Boston Biochem). The concentration of the enzyme (Uch-L3) in specificity assays was 13 pM. The concentrations were determined in order to perform specificity assays under initial velocities at fixed substrate concentration. Compounds were pre-incubated with enzymes for 30 minutes at 25° C. Reactions were initiated by addition of substrate to the plates containing the enzymes (+/−compounds) diluted in assay buffer. Reactions were incubated for 60 minutes at 37° C. Reactions were stopped by adding acetic acid (100 mM final). Readings were performed on a Pherastar Fluorescent Reader (BMG). δ Emission 380 nm; δ Excitation=460 nm. Data (mean values+/− standard deviation) were analyzed as % of control (no compound) and plotted as percentage versus the Log of the compound concentration using GraphPad (Prism). Data were fitted to a sigmoidal model (variable slope).

Row | GI50 ([1]; Homo sapiens, HCT-116) [µM] | GI50 ([2]; Homo sapiens, PC-3) [µM] | Structure (SMILES) | further results
1 | 0.5 | 0.39 | CON=C1c2cc(Cl)ccc2-c2nc(C#N)c(C#N)nc21 [Example 24a, 7-Chloro-9-methoxyimino-9H-indeno[1,2-b]pyrazine-2,3-dicarbonitrile] | –
2 | 0.19 | 1.4 | N#Cc1nc2c(nc1C#N)-c1cc(Cl)ccc1C2=O [Example 25, 6-Chloro-9-oxo-9H-indeno[1,2-b]pyrazine-2,3-dicarbonitrile] | –
3 | 0.94 | 0.62 | C=CCON=C1c2cc(Cl)ccc2-c2nc(C#N)c(C#N)nc21 [Example 24b, 9-Allyloxyimino-7-chloro-9H-indeno[1,2-b]pyrazine-2,3-dicarbonitrile] | –
4 | – | – | N#Cc1nc2c(nc1C(N)=O)-c1ccccc1/C2=N\O [Example 33, 2-cyano-9-[hydroxyimino]-9H-indeno[1,2-b]pyrazine-3-carboxylic acid amide] | IC50 (USP7): 13 µM; IC50 (USP8): 0.733 µM; IC50 (Uch-L3): 0.596 µM; GI50 [1]: 1.6 µM; GI50 [2]: 1.2 µM

Row | Structure (SMILES) | GI50 ([1]; Homo sapiens, HCT-116) [µM] | GI50 ([2]; Homo sapiens, PC-3) [µM] | further results
5 | COc1nc2c(nc1C#N)C(O)c1ccccc1-2 (stereo not shown) [Example 2, 9-hydroxy-3-methoxy-9H-indeno[1,2-b]pyrazine-2-carbonitrile] | > 10 | – | GI50 ([2]; Homo sapiens, PC-3, 72 h): > 10 µM
